In US20250034125A1, “COMPOUNDS AND USES THEREOF” (JANSSEN PHARMACEUTICA NV, priority 2019, published 2025):
Read-outs that look alike come from different tables or passages of the source.

Columns and labels:
[1] = target: T1, SCD5 (Homo sapiens, UniProt Q86SK9); assay: Growth inhibition of yeast (ole1Δ) expressing human SCD5 as the sole desaturase; format: cell-based
T1 construct: host or cells: Saccharomyces cerevisiae ole1Δ strain (W303 pdr1Δ pdr3Δ background), plasmid pRS316, TDH3 promoter
T1 sequence (Q86SK9 1-330): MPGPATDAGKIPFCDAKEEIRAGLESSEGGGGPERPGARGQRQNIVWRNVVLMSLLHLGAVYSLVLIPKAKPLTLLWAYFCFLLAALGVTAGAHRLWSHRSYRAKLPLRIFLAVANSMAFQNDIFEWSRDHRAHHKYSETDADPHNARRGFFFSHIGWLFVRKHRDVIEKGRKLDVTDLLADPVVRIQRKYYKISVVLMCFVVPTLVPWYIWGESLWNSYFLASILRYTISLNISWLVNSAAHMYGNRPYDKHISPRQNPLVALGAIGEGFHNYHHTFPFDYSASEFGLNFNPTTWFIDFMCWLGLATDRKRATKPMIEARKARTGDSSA

[2] = target: T2, SCD1 (Homo sapiens, UniProt O00767); assay: Growth inhibition of yeast (ole1Δ) expressing human SCD1 as the sole desaturase; format: cell-based
T2 construct: host or cells: Saccharomyces cerevisiae ole1Δ strain (W303 pdr1Δ pdr3Δ background), plasmid pRS316, TDH3 promoter
T2 sequence (O00767 1-359): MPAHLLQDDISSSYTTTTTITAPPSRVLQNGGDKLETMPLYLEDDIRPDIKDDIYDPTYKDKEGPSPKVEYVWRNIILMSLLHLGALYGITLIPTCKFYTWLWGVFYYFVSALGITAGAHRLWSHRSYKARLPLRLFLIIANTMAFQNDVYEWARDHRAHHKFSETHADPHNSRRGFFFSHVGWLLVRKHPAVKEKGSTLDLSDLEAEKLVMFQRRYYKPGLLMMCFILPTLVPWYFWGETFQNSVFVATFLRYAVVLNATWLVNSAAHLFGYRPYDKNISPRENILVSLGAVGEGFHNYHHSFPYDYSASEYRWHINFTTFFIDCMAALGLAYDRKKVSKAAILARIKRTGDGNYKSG

[3] = yeast strain with SCD5 plasmid, OD600 growth read at 40 h, read-out: SCD5 IC50
[4] = yeast strain with SCD1 plasmid, OD600 growth read at 40 h, read-out: SCD1 IC50

For `Cn1nc(NC(=O)N2CCC(Oc3cc(F)c(F)c(C#N)c3)CC2)ccc1=O` [Compound 90, 4-(3-cyano-4,5-difluorophenoxy)-N-(1-methyl-6-oxo-1,6-dihydropyridazin-3-yl)piperidine-1-carboxamide], the IC50 [1, 3] was 7180 nM and the IC50 [2, 4] was 10300 nM.
For `Cn1nc(NC(=O)N2CCC(COc3ccccc3C(F)(F)F)CC2)ccc1=O` [Compound 100, N-(1-methyl-6-oxo-1,6-dihydropyridazin-3-yl)-4-((2-(trifluoromethyl)phenoxy)methyl)piperidine-1-carboxamide], the IC50 [1, 3] was 220 nM and the IC50 [2, 4] was 4490 nM.
`Cn1nc(NC(=O)N2CCC(F)(Cc3cccc(Cl)c3)CC2)ccc1=O` [Compound 46] gave an IC50 [1, 3] of 30 nM and an IC50 [2, 4] of 640 nM.
Compound `Cn1nc(NC(=O)N2CCC(Cc3cccc(F)c3)CC2)ccc1=O` [Compound 41, 4-(3-fluorobenzyl)-N-(1-methyl-6-oxo-1,6-dihydropyridazin-3-yl)piperidine-1-carboxamide] has an IC50 [1, 3] of 140 nM and an IC50 [2, 4] of 2710 nM.
In the case of `Cn1cc(NC(=O)N2CCC(Cc3cc(F)ccc3F)CC2)ccc1=O` [Compound 10], the IC50 [1, 3] is reported as > 45000 nM and the IC50 [2, 4] is reported as > 45000 nM.
`Cn1nc(NC(=O)N2CCC(Oc3cc(F)ccc3C(F)(F)F)CC2)ccc1=O` [Compound 86, 4-(5-fluoro-2-(trifluoromethyl)phenoxy)-N-(1-methyl-6-oxo-1,6-dihydropyridazin-3-yl)piperidine-1-carboxamide] showed an IC50 [1, 3] of 10 nM and an IC50 [2, 4] of 10 nM.
In the case of `Cn1cc(-c2nnc(N3CCC(Cc4cc(F)cc(F)c4)CC3)o2)ccc1=O` [Compound 19, 5-(5-(4-(3,5-difluorobenzyl)piperidin-1-yl)-1,3,4-oxadiazol-2-yl)-1-methylpyridin-2(1H)-one], the IC50 [1, 3] is reported as 1000 nM and the IC50 [2, 4] is reported as 9720 nM.
`Cn1nc(NC(=O)N2CCC(Cc3ccc(F)c(F)c3)CC2)ccc1=O` [Compound 49, 4-(3,4-difluorobenzyl)-N-(1-methyl-6-oxo-1,6-dihydropyridazin-3-yl)piperidine-1-carboxamide] showed an IC50 [1, 3] of 430 nM and an IC50 [2, 4] of 8100 nM.
In the case of `Cn1cc(NC(=O)N2CCC(Nc3cc(F)cc(F)c3)CC2)ccc1=O` [Compound 11, 4-(3,5-difluorophenylamino)-N-(1-methyl-6-oxo-1,6-dihydropyridin-3-yl)piperidine-1-carboxamide], the IC50 [1] is reported as > 45000 nM and the IC50 [2] is reported as > 45000 nM.
With `COC1(Cc2cccc(F)c2)CCN(C(=O)Nc2ccc(=O)n(C)n2)CC1` [Compound 48, 4-(3-fluorobenzyl)-4-methoxy —N-(1-methyl-6-oxo-1,6-dihydropyridazin-3-yl)piperidine-1-carboxamide] the IC50 [1, 3] was > 45000 nM and the IC50 [2, 4] was > 45000 nM.
`Cn1nc(-c2nnc(N3CCC(Cc4cc(F)cc(F)c4)CC3)s2)ccc1=O` [Compound 121, 6-(5-(4-(3,5-difluorobenzyl)piperidin-1-yl)-1,3,4-thiadiazol-2-yl)-2-methylpyridazin-3(2H)-one] gave an IC50 [1, 3] of 10 nM and an IC50 [2, 4] of 180 nM.
Work on `Cn1nc(NC(=O)N2CCC(Oc3ccc(Cl)cc3)CC2)ccc1=O` [Compound 71] yielded an IC50 [1, 3] of 4960 nM and an IC50 [2, 4] of 13300 nM.
For `Cn1nc(NC(=O)N2CCC(Oc3cccc(C(F)(F)F)c3)CC2)ccc1=O` [Compound 74, N-(1-methyl-6-oxo-1,6-dihydropyridazin-3-yl)-4-(3-(trifluoromethyl)phenoxy) piperidine-1-carboxamide], the IC50 [1, 3] was 40 nM and the IC50 [2, 4] was 20 nM.
For `Cn1nc(NC(=O)N2CCC(Cc3cccc(C#N)c3Cl)CC2)ccc1=O` [Compound 56, 4-(2-chloro-3-cyanobenzyl)-N-(1-methyl-6-oxo-1,6-dihydropyridazin-3-yl)piperidine-1-carboxamide], the IC50 [1, 3] was > 45000 nM and the IC50 [2, 4] was > 45000 nM.
`Cn1nc(NC(=O)N2CCC(Oc3ccc(F)cc3Cl)CC2)ccc1=O` [Compound 83, 4-(2-chloro-4-fluorophenoxy)-N-(1-methyl-6-oxo-1,6-dihydropyridazin-3-yl)piperidine-1-carboxamide] was tested, and the IC50 [1, 3] was 6210 nM and the IC50 [2, 4] was 4360 nM.
Compound `Cn1nc(NC(=O)N2CCC(COc3ccccc3Cl)CC2)ccc1=O` [Compound 98, 4-((2-chlorophenoxy)methyl)-N-(1-methyl-6-oxo-1,6-dihydropyridazin-3-yl)piperidine-1-carboxamide] has an IC50 [1, 3] of 1350 nM and an IC50 [2, 4] of 5180 nM.
For `Cn1nc(-c2nc(N3CCC(Cc4ccccc4)CC3)no2)ccc1=O` [Compound 113, 6-(3-(4-benzylpiperidin-1-yl)-1,2,4-oxadiazol-5-yl)-2-methylpyridazin-3(2H)-one], the IC50 [1, 3] was 380 nM and the IC50 [2, 4] was > 45000 nM.
In the case of `Cn1nc(NC(=O)N2CC[C@@H](Oc3cc(F)cc(F)c3)C2)ccc1=O` [Compound 28, (3R)-3-(3,5-difluorophenoxy)-N-(1-methyl-6-oxo-1,6-dihydropyridazin-3-yl)pyrrolidine-1-carboxamide], the IC50 [1, 3] is reported as > 45000 nM and the IC50 [2, 4] is reported as 8100 nM.
In the case of `Cn1nc(NC(=O)N2CCC(O)(Cc3cccc(F)c3)CC2)ccc1=O` [Compound 47, 4-(3-fluorobenzyl)-4-hydroxy —N-(1-methyl-6-oxo-1,6-dihydropyridazin-3-yl)piperidine-1-carboxamide], the IC50 [1, 3] is reported as > 45000 nM and the IC50 [2, 4] is reported as > 45000 nM.
In the case of `Cn1nc(NC(=O)N2CCC[C@@H](c3ccc(Cl)cc3)CC2)ccc1=O` [Compound 31], the IC50 [1, 3] is reported as > 45000 nM and the IC50 [2, 4] is reported as 39000 nM.
`Cn1nc(NC(=O)N2CCC(Cc3ccc(Cl)cc3)CC2)ccc1=O` [Compound 43] was tested, and the IC50 [1, 3] was 2240 nM and the IC50 [2, 4] was 8580 nM.
For `Cn1cc(NC(=O)N2CCC(Cc3cc(F)cc(F)c3)C2)ccc1=O` (centres unmarked) [Compound 3, 3-(3,5-difluorobenzyl)-N-(1-methyl-6-oxo-1,6-dihydropyridin-3-yl)pyrrolidine-1-carboxamide], the IC50 [1, 3] was 20700 nM and the IC50 [2, 4] was 11300 nM.
Work on `Cc1cc(NC(=O)N2CCC(Oc3cc(F)cc(F)c3)CC2)nn(C)c1=O` [Compound 126] yielded an IC50 [1, 3] of 40 nM and an IC50 [2, 4] of 40 nM.
In the case of `Cn1nc(-c2nnc(N3CCC(Cc4cc(F)cc(F)c4)CC3)o2)ccc1=O` [Compound 118, 6-(5-(4-(3,5-difluorobenzyl)piperidin-1-yl)-1,3,4-oxadiazol-2-yl)-2-methylpyridazin-3(2H)-one], the IC50 [1, 3] is reported as 70 nM and the IC50 [2, 4] is reported as 26300 nM.
`O=c1ccc(-c2noc(N3CCC(Cc4ccc(F)c(F)c4)CC3)n2)c[nH]1` [Compound 1] was tested, and the IC50 [1, 3] was 3800 nM and the IC50 [2, 4] was 14000 nM.
`Cn1nc(NC(=O)N2CCC(=Cc3cc(F)cc(F)c3)CC2)ccc1=O` [Compound 33, 4-(3,5-difluorobenzylidene)-N-(1-methyl-6-oxo-1,6-dihydropyridazin-3-yl)piperidine-1-carboxamide] was tested, and the IC50 [1, 3] was 140 nM and the IC50 [2, 4] was 440 nM.
With `Cn1cc(-c2nc(N3CCC(Oc4cccc(F)c4Cl)CC3)no2)ccc1=O` [Compound 16, 5-(3-(4-(2-chloro-3-fluorophenoxy)piperidin-1-yl)-1,2,4-oxadiazol-5-yl)-1-methylpyridin-2(1H)-one] the IC50 [1, 3] was 590 nM and the IC50 [2, 4] was 350 nM.
`O=C(Cc1ccc(=O)[nH]n1)N1CCC(Cc2cc(F)cc(F)c2)CC1` [Compound 35] was tested, and the IC50 [1, 3] was 20400 nM and the IC50 [2, 4] was > 45000 nM.
`Cn1nc(NC(=O)N2CCC(Cc3cc(F)ccc3F)CC2)ccc1=O` [Compound 53] gave an IC50 [1, 3] of 130 nM and an IC50 [2, 4] of 1180 nM.
With `Cn1nc(NC(=O)N2CCC(Oc3cc(F)c(F)c(Cl)c3)CC2)ccc1=O` [Compound 89, 4-(3-chloro-4,5-difluorophenoxy)-N-(1-methyl-6-oxo-1,6-dihydropyridazin-3-yl)piperidine-1-carboxamide] the IC50 [1, 3] was 60 nM and the IC50 [2, 4] was 260 nM.
`Cn1nc(NC(=O)N2CC(Oc3cc(F)cc(F)c3)C2)ccc1=O` [Compound 24, 3-(3,5-difluorophenoxy)-N-(1-methyl-6-oxo-1,6-dihydropyridazin-3-yl)azetidine-1-carboxamide] was tested, and the IC50 [1, 3] was 2900 nM and the IC50 [2, 4] was 1100 nM.
`Cn1nc(NC(=O)N2CCC(Cc3cccc(Cl)c3)C2)ccc1=O` (centres unmarked) [Compound 25, 3-(3-chlorobenzyl)-N-(1-methyl-6-oxo-1,6-dihydropyridazin-3-yl)pyrrolidine-1-carboxamide] gave an IC50 [1, 3] of 5290 nM and an IC50 [2, 4] of 2750 nM.
With `Cn1nc(NC(=O)N2CCC(Oc3ccc(F)cc3C(F)(F)F)CC2)ccc1=O` [Compound 85] the IC50 [1, 3] was 50 nM and the IC50 [2, 4] was 80 nM.
Work on `Cn1nc(NC(=O)N2CCC(Cc3ccc(Cl)c(F)c3)CC2)ccc1=O` [Compound 52, 4-(4-chloro-3-fluorobenzyl)-N-(1-methyl-6-oxo-1,6-dihydropyridazin-3-yl)piperidine-1-carboxamide] yielded an IC50 [1, 3] of 330 nM and an IC50 [2, 4] of 2400 nM.
Work on `Cc1cc(NC(=O)N2CCC(Cc3cc(F)cc(F)c3)CC2)nn(C)c1=O` [Compound 128] yielded an IC50 [1, 3] of 20 nM and an IC50 [2, 4] of 50 nM.
In the case of `Cc1ccccc1OC1CCN(C(=O)Nc2ccc(=O)n(C)n2)CC1` [Compound 72, N-(1-methyl-6-oxo-1,6-dihydropyridazin-3-yl)-4-(o-tolyloxy) piperidine-1-carboxamide], the IC50 [1, 3] is reported as 280 nM and the IC50 [2, 4] is reported as 430 nM.
`Cn1nc(NC(=O)N2CCC(F)(Cc3cccc(F)c3)CC2)ccc1=O` [Compound 45, 4-fluoro-4-(3-fluorobenzyl)-N-(1-methyl-6-oxo-1,6-dihydropyridazin-3-yl)piperidine-1-carboxamide] was tested, and the IC50 [1, 3] was 220 nM and the IC50 [2, 4] was 1680 nM.
